Columns and labels:
[1] = tested on: PC3 (prostate); experiment: In vitro cytotoxic activity MTT assay, PC3; type: cell-based; details: Homo sapiens, 96 hours exposure, read-out: IC50, 50% inhibition of cell proliferation
Method: (§1) Compounds 1-16 were screened for their in vitro cytotoxic activity utilizing a 3-(4,5-dimethyl-thiazol-2-yl)-2,5-diphenyltetrazolium bromide (MTT) assay against selected cancer human cell lines consisting of PC3 (prostate), HCT116 (colon), A375 (melanoma), H1299 (lung), MIAPaCa-2 (pancreas), HL60 (leukemia), MCF7 (breast), MDA-MB-231 (breast) (T. Mosmann, J. Immunol. Meth., 1983, 65, 55-63). The cells were cultured at 37° C. in RMPI1640 medium supplemented with 10% fetal bovine serum, 50 IU/mL penicillin, and 50 μg/mL streptomycin in a 5% CO2 incubator. All cells were sub-cultured 3 times/week by trypsinisation. Viable cells were seeded and allowed to adhere for 12 h before a test drug was added in 96-well plates at an initial density of 1.0×10^5 cells/mL. Tumour cell lines were separately exposed to various concentrations of the tested compounds followed by incubation at a temperature of 37° C. during 96 h inside a medium of fresh RMPI 1640. Cells were subsequently incubated at 37° C. using MTT at 0.5 mg/mL during 4 h. After removal of supernatant, formazan crystals were dissolved in isopropanol and the optical density was measured at 570 nm. CX-4945 was used as a positive control.

[2] = tested on: HCT116 (colon); experiment: In vitro cytotoxic activity MTT assay, HCT116; type: cell-based; details: Homo sapiens, HCT-116, 96 hours exposure, read-out: IC50, 50% inhibition of cell proliferation
Method: as §1

[3] = tested on: A375 (melanoma); experiment: In vitro cytotoxic activity MTT assay, A375; type: cell-based; details: Homo sapiens, A-375, 96 hours exposure, read-out: IC50, 50% inhibition of cell proliferation
Method: as §1

[4] = tested on: H1299 (lung); experiment: In vitro cytotoxic activity MTT assay, H1299; type: cell-based; details: Homo sapiens, NCI-H1299, 96 hours exposure, read-out: IC50, 50% inhibition of cell proliferation
Method: as §1

[5] = tested on: MIAPaCa-2 (pancreas); experiment: In vitro cytotoxic activity MTT assay, MIAPaCa-2; type: cell-based; details: Homo sapiens, MIA PaCa-2, 96 hours exposure, read-out: IC50, 50% inhibition of cell proliferation
Method: as §1

[6] = tested on: HL60 (leukemia); experiment: In vitro cytotoxic activity MTT assay, HL60; type: cell-based; details: Homo sapiens, HL-60, 96 hours exposure, read-out: IC50, 50% inhibition of cell proliferation
Method: as §1

[7] = tested on: MCF7 (breast); experiment: In vitro cytotoxic activity MTT assay, MCF7; type: cell-based; details: Homo sapiens, 96 hours exposure, read-out: IC50, 50% inhibition of cell proliferation
Method: as §1

[8] = tested on: MDA-MB-231 (breast); experiment: In vitro cytotoxic activity MTT assay, MDA-MB-231; type: cell-based; details: Homo sapiens, 96 hours exposure, read-out: IC50, 50% inhibition of cell proliferation
Method: as §1

[9] = target: T1, recombinant human CK2 (Homo sapiens, UniProt P68400); experiment: CK2 Kinase Assay (33P-ATP filter plate); type: biochemical; details: final ATP concentration 15 μM, 10 min at 30° C; read-out: protein kinase CK2 IC50
T1 construct: purchased Millipore
Method: CK2 Kinase Assay was conducted using the protocol as described in Pierre F. et al; J. Med. Chem. 2011, 54, 635-654. The tested compounds in aqueous solution were added at a volume of 10 μL to a reaction mixture comprising 10 μL of assay dilution buffer (ADB; 20 mM MOPS, pH 7.2, 25 mM β-glycerol phosphate, 5 mM EGTA, 1 mM sodium orthovanadate, and 1 mM dithiothreitol), 10 μL of substrate peptide (RRRDDDSDDD, dissolved in ADB at a concentration of 1 mM), 10 μL of recombinant human CK2 (RROP-holoenzyme, 25 ng dissolved in ADB; Millipore). Reactions were initiated by the addition of 10 μL of ATP solution (90% 75 mMMgCl2, 75 μM ATP (final ATP concentration:15 μM) dissolved in ADB; 10% [γ-33P] ATP (stock 1 mCi/100 μL; 3000 Ci/mmol (Perkin-Elmer) and maintained for 10 min at 30° C. The reactions were quenched with 100 μL of 0.75% phosphoric acid and then transferred to and filtered through a phosphor cellulose filter plate (Millipore). After washing each well five times with 0.75% phosphoric acid, the plate was dried under vacuum for 5 min and, following the addition of 15 μL of scintillation fluid to each well, the residual radioactivity was measured using a Wallac luminescence counter. The IC50 values were derived from eight concentrations of test inhibitors.

T1 sequence (P68400 whole entry): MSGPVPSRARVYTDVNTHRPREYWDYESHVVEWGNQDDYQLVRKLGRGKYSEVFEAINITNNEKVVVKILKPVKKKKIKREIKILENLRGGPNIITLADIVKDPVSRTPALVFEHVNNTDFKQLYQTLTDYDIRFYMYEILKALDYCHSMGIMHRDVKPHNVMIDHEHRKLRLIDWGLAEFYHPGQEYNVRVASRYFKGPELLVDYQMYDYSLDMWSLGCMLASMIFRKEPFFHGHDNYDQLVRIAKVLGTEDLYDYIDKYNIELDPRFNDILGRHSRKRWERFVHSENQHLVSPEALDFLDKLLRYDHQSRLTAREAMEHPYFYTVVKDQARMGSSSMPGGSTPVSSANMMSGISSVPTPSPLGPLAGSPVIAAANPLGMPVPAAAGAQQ
T1 sequence (P67870 whole entry partner): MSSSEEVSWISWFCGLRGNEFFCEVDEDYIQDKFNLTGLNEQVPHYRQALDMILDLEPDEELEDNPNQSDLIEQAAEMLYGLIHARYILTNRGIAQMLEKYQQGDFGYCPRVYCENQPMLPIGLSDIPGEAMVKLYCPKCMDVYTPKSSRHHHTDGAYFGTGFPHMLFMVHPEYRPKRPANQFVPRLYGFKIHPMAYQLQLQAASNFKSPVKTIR

O=c1[nH]ccc2c1[nH]c1c3ccncc3nc(Nc3cccc(Cl)c3)c21 [Compound 1, 6-((3-chlorophenyl)amino)-9,11-dihydro-10H-pyrido[4′,3′:4,5]pyrrolo[3,2-c][1,7]naphthyridin-10-one]
IC50 [1]: 1800 nM
IC50 [2]: 2100 nM
IC50 [3]: 3900 nM
IC50 [4]: 2700 nM
IC50 [5]: 1200 nM
IC50 [6]: 4600 nM
IC50 [7]: 5400 nM
IC50 [8]: 4000 nM
IC50 [9]: 45 nM
